{
  "source": "patent US9987333B2",
  "about": "“Method for suppressing malignant tumor metastasis” (Shionogi & Co., Ltd., priority 2012, dated 2018)",
  "key": {"Mouse melanoma B16-F10 [1]": {"tested_on": "Mouse melanoma B16-F10", "assay": "Tail vein injection metastasis test, mouse melanoma B16-F10, CDDP pretreatment with angiotensin II receptor antagonists (Example 2)", "assay_type": "in vivo, mice", "details": "14 days; for exacerbation of lung metastasis caused by CDDP: oral, with CDDP 5 mg/kg, valsartan 40, losartan 30, olmesartan medoxomil 5, azilsartan 10, candesartan cilexetil 8, irbesartan 100 mg/kg", "experimental": "Eight-week-old male C57BL6 mice (purchased from Japan SLC, Inc.) were used. Mouse melanoma B16-F10 was purchased from ATCC, and cultured in DMEM (Life Technologies Corp.) containing 10% FCS under 5% CO2 at 37° C. The cells in a subconfluent state were treated with EDTA-trypsin, centrifuged, and then suspended in serum free DMEM so as to be 5×10^6 cells/mL. The melanoma cell suspension (100 μL/mouse, […]) was injected to the tail vein of the mice. As pretreatment, 5 mg/kg of cisplatin (CDDP) was injected to the tail vein of the mice 2 days before the injection of the melanoma cells into the tail vein. As an angiotensin II receptor antagonist, used were valsartan (trade name: Diovan made by Novartis Pharma K.K.), losartan (trade name: Nu-Lotan made by MSD K.K.), olmesartan medoxomil (trade name: Olmetecmade by Daiichi Sankyo Co., Ltd.), azilsartan (trade name: Azilva made by Takeda Pharmaceutical Co., Ltd.), candesartan cilexetil (trade name: Blopress made by Takeda Pharmaceutical Co., Ltd.), and irbesartan (trade name: Avapro made by Sumitomo Dainippon Pharma Co., Ltd.). To the angiotensin II receptor antagonist group, a 0.5% methylcellulose aqueous solution prepared so as to contain valsartan (40 mg/kg), losartan (30 mg/kg), olmesartan medoxomil (5 mg/kg), azilsartan (10 mg/kg), candesartan cilexetil (8 mg/kg), or irbesartan (100 mg/kg) was orally given for 4 days before the start of the experiment (before the injection of tumor cells to mice). After the injection of tumor cells, the oral intake of methylcellulose aqueous solutions containing telmisartan or pitavastatin in the above doses in the angiotensin II receptor antagonist group and the pitavastatin group was continued until the end of the experiment. To the control group, a 0.5% methylcellulose aqueous solution not containing any of the agents was orally given before the start of the experiment. The sample size of each group was n=5. The condition of the lung metastasis of the tumor cells 2 weeks (14 days) after the tumor cell injection was observed."}, "Mouse melanoma B16-F10 [2]": {"tested_on": "Mouse melanoma B16-F10", "assay": "Tail vein injection metastasis test, mouse melanoma B16-F10 (Example 1)", "assay_type": "in vivo, mice", "experimental": "Six-week-old male C56BL/6N mice (purchased from Japan SLC, Inc.) were used. Mouse melanoma B16-F10 was purchased from ATCC, and cultured in DMEM (Life Technologies Corp.) containing 10% FCS under 5% CO2 at 37° C. The cells in a subconfluent state were treated with EDTA-trypsin, centrifuged, and then suspended in serum free DMEM so as to be 5×10^6 cells/mL. The melanoma cell suspension (100 μL/mouse, 5×10^5 cells) was injected to the tail vein of the mice.\nFor the CDDP group, 5 mg/kg of CDDP was injected, as pretreatment, to the tail vein of the mice 2 days before the injection of the melanoma cells into the tail vein. For the control group, an osmotic pump containing 0.9% physiological saline was subcutaneously implanted in the back of each mouse on the day before the injection of the melanoma cells into the tail vein. Similarly, for the adrenomedullin group, an osmotic pump containing adrenomedullin prepared for administration at 0.05 μg/kg/min was subcutaneously implanted into each mouse, and for the ghrelin group, an osmotic pump containing ghrelin prepared for administration at 0.08 μg/kg/min was subcutaneously implanted into each mouse. The tail vein injection of the melanoma cells was performed as above and the drug administration was continued for 2 weeks. The condition of the lung metastasis of the tumor cells 2 weeks after the tumor cell injection was observed (FIG. 1).\nTo the angiotensin II receptor antagonist group, a 0.5% methylcellulose aqueous solution prepared so as to contain 2 mg/kg or 8 mg/kg of telmisartan was orally given for 4 days before the start of the experiment (before the injection of tumor cells to mice), and to the pitavastatin group, a 0.5% methylcellulose aqueous solution prepared so as to contain 20 mg/kg of pitavastatin was orally given for the same period. After the injection of tumor cells, the oral intake of methylcellulose aqueous solutions containing telmisartan or pitavastatin in the above doses in the angiotensin II receptor antagonist group and the pitavastatin group was continued until the end of the experiment. To the control group, a 0.5% methylcellulose aqueous solution not containing any of the agents was orally given before the start of the experiment. Also, as reference example, angiotensin II was administered at 1 μg/kg/min, and then the experiment was conducted in the same way. The sample size of each group was n=5.\nIn contrast, in both of the telmisartan 2 mg/kg group and the telmisartan 8 mg/kg group, the exacerbation by CDDP was suppressed. The telmisartan 2 mg/kg (CDDP group) and the telmisartan 8 mg/kg (CDDP group) shown in FIGS. 3 and 4 are groups to which 2 mg/kg or 8 mg/kg of telmisartan was given in the manner described above before CDDP was injected as pretreatment. The pitavastatin (CDDP group) is the group to which pitavastatin was given in the manner described above before CDDP was injected as pretreatment."}, "[3]": {"tested_on": "Human lung arterial microvascular endothelial cells", "assay": "Adhesion of A549-GFP human lung cancer cells to human lung arterial microvascular endothelial cells in co-culture (Example 3)", "assay_type": "cell-based", "details": "3 h co-culture", "experimental": "Human lung arterial microvascular endothelial cells were cultured to confluence, losartan was added thereto (to a final concentration of 5×10^−6 M), and 2 hours later, phosphate buffered saline (PBS) or cisplatin (CDDP) was added (to a final concentration of 5 μM). An hour later, the culture medium was replaced with a fresh culture medium (Medium 199 containing 1% BSA). To this, a suspension of fluorescently-labeled A549 human lung cancer cells (1×10^5 cells) was added, and the cells were co-cultured for 3 hours. After the co-culture, non-adherent cancer cells were washed out with cold PBS, and then 15-minute fixation with 4% formalin was performed. […] In FIG. 9A, spots which appear gray (actually green) are fluorescently-labeled A549-GFP human lung cancer cells. In FIG. 9B, white bars are for the control (without losartan pretreatment), and black bars are for the cases with losartan pretreatment. The vertical axis indicates the number of cancer cells that adhered (*: P<0.05).\nHuman lung arterial microvascular endothelial cells (manufactured by Lonza Japan) were cultured to confluence, losartan was added thereto (to a final concentration of 5×10^−6 M), and 2 hours later, phosphate buffered saline (PBS) or cisplatin (CDDP) was added (to a final concentration of 5 μM). […]"}, "tumor": {"tested_on": "tumor", "details": "Non Patent Literature 27; cited from earlier work"}, "renal cell carcinoma": {"tested_on": "renal cell carcinoma", "details": "Non Patent Literature 23; cited from earlier work"}, "colon cancer cells": {"tested_on": "colon cancer cells", "details": "Non Patent Literature 24; cited from earlier work"}, "E select in": {"tested_on": "E select in", "details": "Non Patent Literature 29; cited from earlier work"}, "[4]": {"tested_on": "human umbilical vein endothelial cells (HUVECs)", "details": "Non Patent Literature 29; cited from earlier work"}},
  "data": [
    {"compound": "[NH2][Pt]([NH2])([Cl])[Cl]", "note": "[CDDP, cisplatin]", "values": [
      {"measurement": "tumor metastasis (number of lung nodules)", "setting": "Mouse melanoma B16-F10 [1]; CDDP 5 mg/kg tail vein 2 days before melanoma injection, vs control", "result": "augmented"},
      {"measurement": "lung metastasis of melanoma (number of nodules formed in the lungs)", "setting": "Mouse melanoma B16-F10 [2]; CDDP 5 mg/kg tail vein 2 days before melanoma injection, compared to the control group", "result": "significantly increased"},
      {"measurement": "number of cancer cells adhered to the vascular endothelial cells", "setting": "[3]; 1-hour pretreatment with 5 μM CDDP", "result": "increased"}
    ]},
    {"compound": "CCOc1nc2cccc(C(=O)O)c2n1Cc1ccc(-c2ccccc2-c2nc(=O)o[nH]2)cc1", "note": "[azilsartan]", "values": [
      {"measurement": "exacerbation of lung metastasis caused by CDDP", "setting": "Mouse melanoma B16-F10 [1]", "result": "significantly suppressed"}
    ]},
    {"compound": "CCOc1nc2cccc(C(=O)OC(C)OC(=O)OC3CCCCC3)c2n1Cc1ccc(-c2ccccc2-c2nn[nH]n2)cc1", "note": "(stereo not shown) [candesartan cilexetil]", "values": [
      {"measurement": "exacerbation of lung metastasis caused by CDDP", "setting": "Mouse melanoma B16-F10 [1]", "result": "significantly suppressed"},
      {"measurement": "angiogenesis and metastasis of a tumor", "setting": "tumor", "result": "suppressed"}
    ]},
    {"compound": "CCCCC1=NC2(CCCC2)C(=O)N1Cc1ccc(-c2ccccc2-c2nnn[nH]2)cc1", "note": "[irbesartan]", "values": [
      {"measurement": "exacerbation of lung metastasis caused by CDDP", "setting": "Mouse melanoma B16-F10 [1]", "result": "significantly suppressed"}
    ]},
    {"compound": "CCCCc1nc(Cl)c(CO)n1Cc1ccc(-c2ccccc2-c2nn[nH]n2)cc1", "note": "[losartan]", "values": [
      {"measurement": "exacerbation of lung metastasis caused by CDDP", "setting": "Mouse melanoma B16-F10 [1]", "result": "significantly suppressed"},
      {"measurement": "adhesion of cancer cells to the vascular endothelial cells", "setting": "[3]; losartan 5×10^−6 M 2 hours before 5 μM CDDP pretreatment", "result": "significantly suppressed"},
      {"measurement": "lung metastasis of renal cell carcinoma increased by cyclosporin (Cs)", "setting": "renal cell carcinoma", "result": "suppressed"},
      {"measurement": "liver metastasis of colon cancer cells", "setting": "colon cancer cells", "result": "suppressed"}
    ]},
    {"compound": "CC[C@H](C)C(=O)O[C@H]1C[C@@H](C)C=C2C=C[C@H](C)[C@H](CC[C@@H]3C[C@@H](O)CC(=O)O3)[C@H]21", "note": "[lovastatin]", "values": [
      {"measurement": "E select in expression", "setting": "E select in", "result": "inhibits"},
      {"measurement": "adhesion of colon cancer cells to human umbilical vein endothelial cells (HUVECs)", "setting": "[4]", "result": "inhibits"}
    ]},
    {"compound": "CCCc1nc(C(C)(C)O)c(C(=O)OCc2oc(=O)oc2C)n1Cc1ccc(-c2ccccc2-c2nnn[nH]2)cc1", "note": "[olmesartan medoxomil]", "values": [
      {"measurement": "exacerbation of lung metastasis caused by CDDP", "setting": "Mouse melanoma B16-F10 [1]", "result": "significantly suppressed"}
    ]},
    {"compound": "O=C(O)C[C@H](O)C[C@H](O)/C=C/c1c(C2CC2)nc2ccccc2c1-c1ccc(F)cc1", "note": "[pitavastatin]", "values": [
      {"measurement": "exacerbation of the lung metastasis by CDDP", "setting": "Mouse melanoma B16-F10 [2]; pitavastatin 20 mg/kg orally before CDDP (5 mg/kg) pretreatment, 14 days", "result": "significantly suppressed"}
    ]},
    {"compound": "CCCc1nc2c(C)cc(-c3nc4ccccc4n3C)cc2n1Cc1ccc(-c2ccccc2C(=O)O)cc1", "note": "[telmisartan]", "values": [
      {"measurement": "exacerbation of lung metastasis by CDDP", "setting": "Mouse melanoma B16-F10 [2]; telmisartan 2 mg/kg orally before CDDP (5 mg/kg) pretreatment, 14 days", "result": "suppressed"},
      {"measurement": "exacerbation of lung metastasis by CDDP", "setting": "Mouse melanoma B16-F10 [2]; telmisartan 8 mg/kg orally before CDDP (5 mg/kg) pretreatment, 14 days", "result": "suppressed"},
      {"measurement": "lung metastasis of melanoma (number of nodules formed in the lungs)", "setting": "Mouse melanoma B16-F10 [2]; telmisartan 8 mg/kg orally, alone, 14 days after tumor cell injection, vs control", "result": "significantly suppressed"}
    ]},
    {"compound": "CCCCC(=O)N(Cc1ccc(-c2ccccc2-c2nnn[nH]2)cc1)[C@H](C(=O)O)C(C)C", "note": "[valsartan]", "values": [
      {"measurement": "exacerbation of lung metastasis caused by CDDP", "setting": "Mouse melanoma B16-F10 [1]", "result": "significantly suppressed"}
    ]}
  ]
}
